Measurements published in patent US20260137699A1, “OXAZEPINE COMPOUNDS COMPRISING A 6-AZA MOIETY AND USES THEREOF” (Genentech, Inc., priority 2022, published 2026).

Tests used:
Assay type in all cases: cell-based
pERK in SW620 cells = assay: SW620 pERK assay; details: Homo sapiens, SW-620, SW620
HPAC cells = assay: HPAC 3D proliferation assay (CellTiter-Glo 3D); details: Homo sapiens, 168 h, 3D culture, 7 days, read-out: HPAC CTG IC50
Procedure: (§1) Compound potencies were assessed in proliferation assays conducted with SW620 and HPAC cell lines grown in 3D cultures. Cells were seeded into 96- or 384-well ultra-low attachment plates at 3000 or 1000 cells/well, respectively, in culture medium (RPMI-1640, 10% FBS, 2 mM L-glutamine). The plated cells were centrifuged briefly, allowed to rest for 30 minutes under ambient conditions, and cultured overnight at 37° C./5% C02 to initiate the formation of spheroids. Compound dilutions were prepared across a range of concentrations in DMSO and added to the appropriate wells of the assay plates with a 333-fold dilution into the culture medium. The plates were further incubated for 7 days. The quantity of viable cells was assessed using CellTiter-Glo 3D Cell Viability Assay (Promega). The detection reagent penetrates the spheroids and lyses the cells. The released ATP that was detected with luciferase and a luciferase substrate to generate a luminescent readout. […] The data points were fit to a 4-parameter logistic equation to determine IC50 values.

H1975 cells = assay: H1975 CTG proliferation assay; details: Homo sapiens, NCI-H1975, H1975
SW620 cells = assay: SW620 3D proliferation assay (CellTiter-Glo 3D); details: Homo sapiens, SW-620, 168 h, SW620, 3D culture, 7 days, read-out: SW620 CTG IC50
Procedure: as §1

SMILES | IC50 (pERK in SW620 cells) | IC50 (HPAC cells) | IC50 (H1975 cells) | IC50 (SW620 cells)
Cc1nc(N)c(Cl)c(-c2nc3c4c(nc(OC[C@@]56CCCN5C[C@H](F)C6)nc4c2F)N([C@H](C)c2cccnc2N)CCO3)c1C(F)(F)F (atropisomer, axis not shown; (aS)) [Example 601a, 4-((R)-10-((R)-1-(2-aminopyridin-3-yl)ethyl)-4-fluoro-2-(((2R,7aS)-2-fluorotetrahydro-1H-pyrrolizin-7a(5H)-yl)methoxy)-9,10-dihydro-8H-7-oxa-1,3,6,10-tetraazacyclohepta[de]naphthalen-5-yl)-3-chloro-6-methyl-5-(trifluoromethyl)pyridin-2-amine] | 2.34 nM | 33.6 nM |  | 
Cc1nc(N)c(Cl)c(-c2nc3c4c(nc(OC[C@@]56CCCN5C[C@H](F)C6)nc4c2F)N([C@H](C)c2cccnc2N)CCO3)c1C(F)(F)F (single isomer, unassigned) [Example 601b] | 15.6 nM | 86.7 nM | 80.2 nM | 9.3 nM
Cc1c(F)c(N)cc(-c2nc3c4c(nc(OC[C@@H]5CC(F)(F)CN5C)nc4c2F)N([C@H](C)c2nccnc2N)CCO3)c1C(F)(F)F [Example 8, 3-((R)-1-(5-(5-amino-4-fluoro-3-methyl-2-(trifluoromethyl)phenyl)-2-(((S)-4,4-difluoro-1-methylpyrrolidin-2-yl)methoxy)-4-fluoro-8,9-dihydro-10H-7-oxa-1,3,6,10-tetraazacyclohepta[de]naphthalen-10-yl)ethyl)pyrazin-2-amine] |  | ≥ 2000 nM |  | 
C[C@H](c1cccnc1N)N1CCOc2nc(-c3cccc4sc(N)nc34)c(F)c3nc(OC[C@@]45CCCN4C[C@H](F)C5)nc1c23 [Example 24, 4-(10-((R)-1-(2-aminopyridin-3-yl)ethyl)-4-fluoro-2-(((2R,7aS)-2-fluorotetrahydro-1H-pyrrolizin-7a(5H)-yl)methoxy)-9,10-dihydro-8H-7-oxa-1,3,6,10-tetraazacyclohepta[de]naphthalen-5-yl)benzo[d]thiazol-2-amine] |  | ≥ 2000 nM |  | 
